Source: PubChem BioAssay (NCI)
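Dose response: 5 concentrations. Exposure: 48 h. Format: 96-well plates. Endpoint: linear interpolation; highest concentration if not reached. TGI is the concentration that stops growth completely.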

How the values were obtained:
Test in all cases: growth of human tumour cells (NCI), 48 h
HCT-116 colon = tested on: HCT-116 colon
UO-31 renal = tested on: UO-31 renal
A498 renal = tested on: A498 renal
MDA-MB-435 = tested on: MDA-MB-435
SR leukemia = tested on: SR leukemia
IGROV1 ovarian = tested on: IGROV1 ovarian
HL-60(TB) leukemia = tested on: HL-60(TB) leukemia
PC-3 prostate = tested on: PC-3 prostate
DU-145 prostate = tested on: DU-145 prostate
A549 NSCLC = tested on: A549 NSCLC
SK-MEL-5 melanoma = tested on: SK-MEL-5 melanoma
HS 578T breast = tested on: HS 578T breast
OVCAR-5 ovarian = tested on: OVCAR-5 ovarian
CAKI-1 renal = tested on: CAKI-1 renal
KM12 colon = tested on: KM12 colon
OVCAR-4 ovarian = tested on: OVCAR-4 ovarian
SNB-75 CNS = tested on: SNB-75 CNS
786-0 renal = tested on: 786-0 renal
OVCAR-3 ovarian = tested on: OVCAR-3 ovarian
MDA-N = tested on: MDA-N
NCI-H460 lung = tested on: NCI-H460 lung
HT29 colon = tested on: HT29 colon
SK-MEL-28 melanoma = tested on: SK-MEL-28 melanoma
NCI-H23 lung = tested on: NCI-H23 lung
HCC-2998 colon = tested on: HCC-2998 colon
CCRF-CEM leukemia = tested on: CCRF-CEM leukemia
UACC-62 melanoma = tested on: UACC-62 melanoma
LOX IMVI melanoma = tested on: LOX IMVI melanoma
EKVX NSCLC = tested on: EKVX NSCLC
HCT-15 colon = tested on: HCT-15 colon
SN12C renal = tested on: SN12C renal
MALME-3M melanoma = tested on: MALME-3M melanoma
T-47D breast = tested on: T-47D breast
COLO 205 colon = tested on: COLO 205 colon
U251 CNS = tested on: U251 CNS
UACC-257 melanoma = tested on: UACC-257 melanoma
ACHN renal = tested on: ACHN renal
NCI-H226 lung = tested on: NCI-H226 lung
NCI/ADR-RES ovarian = tested on: NCI/ADR-RES ovarian
OVCAR-8 ovarian = tested on: OVCAR-8 ovarian
SW-620 colon = tested on: SW-620 colon
SNB-19 CNS = tested on: SNB-19 CNS
K-562 leukemia = tested on: K-562 leukemia
HOP-62 NSCLC = tested on: HOP-62 NSCLC
MDA-MB-231 breast = tested on: MDA-MB-231 breast
BT-549 breast = tested on: BT-549 breast
SK-MEL-2 melanoma = tested on: SK-MEL-2 melanoma
M14 melanoma = tested on: M14 melanoma
MOLT-4 leukemia = tested on: MOLT-4 leukemia
HOP-92 NSCLC = tested on: HOP-92 NSCLC
TK-10 renal = tested on: TK-10 renal
RPMI-8226 leukemia = tested on: RPMI-8226 leukemia
MCF7 breast = tested on: MCF7 breast
SF-295 CNS = tested on: SF-295 CNS
SF-268 CNS = tested on: SF-268 CNS
SK-OV-3 ovarian = tested on: SK-OV-3 ovarian
SF-539 CNS = tested on: SF-539 CNS
RXF 393 renal = tested on: RXF 393 renal
NCI-H522 lung = tested on: NCI-H522 lung

Measured: TGI

COc1ccc(CCCNC(=O)Cc2ccccc2CO)cc1OC
not listed: RPMI-8226 leukemia | MCF7 breast | SF-295 CNS | SF-268 CNS | SK-OV-3 ovarian | SF-539 CNS | RXF 393 renal | NCI-H522 lung
> 100 µM: all other assays above

COc1c(Cl)nc2ccccc2c1N=[N+]=[N-]
94.8 µM: BT-549 breast
60.9 µM: A498 renal
not listed: EKVX NSCLC | HCT-15 colon | NCI-H226 lung | NCI/ADR-RES ovarian | OVCAR-8 ovarian | SK-MEL-2 melanoma | NCI-H522 lung
> 100 µM: all other assays above

CCCCc1ccc(N2C(=O)c3cc([N+](=O)[O-])cnc3S2(=O)=O)cc1
8.03 µM: HOP-92 NSCLC
59 µM: SK-MEL-2 melanoma
not listed: HL-60(TB) leukemia | DU-145 prostate | CCRF-CEM leukemia | RXF 393 renal | NCI-H522 lung
> 100 µM: all other assays above

O=C1CCN(CCC(F)(F)C(F)(F)C(F)(F)C(F)(F)C(F)(F)C(F)(F)F)C(=S)N1CCC(F)(F)C(F)(F)C(F)(F)C(F)(F)C(F)(F)C(F)(F)F
not listed: LOX IMVI melanoma | HCT-15 colon | NCI/ADR-RES ovarian | SK-MEL-2 melanoma | RPMI-8226 leukemia
> 100 µM: all other assays above

CN(C)CCNC(=O)c1cccc(NC(=O)c2ccccc2)c1[N+](=O)[O-]
64.8 µM: OVCAR-3 ovarian
27.3 µM: MALME-3M melanoma
not listed: SR leukemia | DU-145 prostate | OVCAR-4 ovarian | LOX IMVI melanoma | EKVX NSCLC | K-562 leukemia | HOP-92 NSCLC | RPMI-8226 leukemia | SF-539 CNS | RXF 393 renal
> 100 µM: all other assays above
